Laboratory results: patent US20120277265A1, “NOVEL POLYQUINOLINE DERIVATIVES AND THE THERAPEUTIC USE THEREOF” (CENTRE NATIONAL DE LA RECHERCHE SCIENTIFIQUE (C.N.R.S.), priority 2005, published 2012)

Legend:
[1] = 25° C., cited from earlier work; for log K1 (stability constant for the MLc species), Zn(II): ionic strength 0.1-0.2, metal ion to chelator 1/1
[2] = Stability constants of competing chelators for Zn(II) (NIST / Sillen-Martell; log Kapp by Eq. 1-2); settings: at pH = 7.4, by Eq. 1 and 2
Text: log Kapp=log K-log α (Eq. 1)
α=[H^+]^n/(Ka1×Ka2×Ka3× . . . Kan)+[H^+]^n-1/(Ka1×Ka2×Ka3× . . . Kan-1)+ . . . +[H^+]/Ka1+1 (Eq. 2)

Structure (SMILES) | log K1 (stability constant for the MLc species), Zn(II) [1] | log K1 app, Zn(II) [2] | log K2 (stability constant for the M(Lc)2 species), Zn(II) ([1]; ionic strength 0.1-0.2)
NCCNCCNCCN [Trien, triethylenetetramine] | 11.9 | 7.8 | –
O=C(O)CN(CC(=O)O)CC(=O)O [NTA, nitrilotriacetic acid] | 10.5 | 8.0 | 3.8
